Data from ChEMBL document CHEMBL1201862, “PubChem BioAssay data set” (2004).
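Exposure lasted 48 hours, with cells grown in 96-well plates and compounds tested at five concentrations. At the GI50, growth is halved.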 Activity calls are given as the source filed them. No stated cut-off is given here; in the data, active = GI50 up to about 1.1 µM and inactive = higher.

How the values were obtained:
Assay in all cases: growth of human tumour cells (NCI), 48 h
A549 = tested on: A549
COLO 205 = tested on: COLO 205
HOP-62 = tested on: HOP-62
HOP-92 = tested on: HOP-92
IGROV-1 = tested on: IGROV-1
K562 = tested on: K562
KM12 = tested on: KM12
NCI-H460 = tested on: NCI-H460
OVCAR-5 = tested on: OVCAR-5
OVCAR-8 = tested on: OVCAR-8
SK-OV-3 = tested on: SK-OV-3
SW-620 = tested on: SW-620
TK-10 = tested on: TK-10
U-251 = tested on: U-251
UO-31 = tested on: UO-31
RXF 393 = tested on: RXF 393
UACC-257 = tested on: UACC-257
HCT-116 = tested on: HCT-116

SMILES | GI50 (A549) | GI50 (COLO 205) | GI50 (HOP-62) | GI50 (HOP-92) | GI50 (IGROV-1) | GI50 (K562) | GI50 (KM12) | GI50 (NCI-H460) | GI50 (OVCAR-5) | GI50 (OVCAR-8) | GI50 (SK-OV-3) | GI50 (SW-620) | GI50 (TK-10) | GI50 (U-251) | GI50 (UO-31) | GI50 (RXF 393) | GI50 (UACC-257) | GI50 (HCT-116)
O=C1c2ccccc2C(=O)c2c(O)c(NCCCNCCO)cc(O)c21 | 10.3 µM (inactive) | 5.92 µM (inactive) | 2.44 µM (inactive) | 12.4 µM (inactive) | 12.4 µM (inactive) | 1.66 µM (inactive) | 0.729 µM (active) | 3.33 µM (inactive) | 11.3 µM (inactive) | 5.79 µM (inactive) | 12.4 µM (inactive) | 4.33 µM (inactive) | 8.83 µM (inactive) | 6.15 µM (inactive) | 5.87 µM (inactive) |  |  | 
COc1ccc(C(=O)Nc2ccccc2)cc1[N+](=O)[O-] | > 100 µM (inactive) | > 100 µM (inactive) | > 100 µM (inactive) |  | > 100 µM (inactive) | > 100 µM (inactive) | 89.7 µM (inactive) | > 100 µM (inactive) |  | > 100 µM (inactive) | > 100 µM (inactive) | > 100 µM (inactive) | > 100 µM (inactive) | > 100 µM (inactive) | 81.5 µM (inactive) | 76.7 µM (inactive) | > 100 µM (inactive) | 
Cc1cc(C)nc(NS(=O)(=O)c2ccc(NC(=O)c3cccn4c(=O)c5ccccc5nc34)cc2)n1 | > 100 µM (inactive) | 40.6 µM (inactive) | > 100 µM (inactive) |  | > 100 µM (inactive) | 32.1 µM (inactive) | 41.1 µM (inactive) | 41.5 µM (inactive) | > 100 µM (inactive) | 27.7 µM (inactive) |  | 34.9 µM (inactive) | > 100 µM (inactive) | 37.4 µM (inactive) | 27.5 µM (inactive) | 23.9 µM (inactive) |  | 53.5 µM (inactive)
Cc1cc(O)cc2c1O[C@@]1(C)CCC3[C@@]4(C)CC[C@H](O)C(C)(C)C4CC[C@@]3(C)[C@H]1C2 (stereo partly drawn) | 5.15 µM (inactive) | 17.5 µM (inactive) |  | 5.09 µM (inactive) | 13.5 µM (inactive) | 2.47 µM (inactive) | 4.31 µM (inactive) | 4.41 µM (inactive) |  | 8.45 µM (inactive) | 3.4 µM (inactive) | 6.14 µM (inactive) | 12.5 µM (inactive) | 2.84 µM (inactive) | 8.45 µM (inactive) | 3.56 µM (inactive) | 12.9 µM (inactive) | 4.31 µM (inactive)
CC(=O)Nc1ccc(-c2nnc(SCC(=O)Nc3cccc(Cl)c3)o2)cc1 | 18.7 µM (inactive) | 16.6 µM (inactive) | 19.7 µM (inactive) |  | 8.97 µM (inactive) | 14.4 µM (inactive) | 16 µM (inactive) | 13.1 µM (inactive) | 20.7 µM (inactive) | 33.2 µM (inactive) | 38 µM (inactive) | 13.5 µM (inactive) | 19.6 µM (inactive) | 9.84 µM (inactive) | 27.7 µM (inactive) | 17.4 µM (inactive) | 17.3 µM (inactive) | 12.9 µM (inactive)
CC(NS(=O)(=O)c1ccc([N+](=O)[O-])cc1)C(=O)O (stereo not drawn) | > 100 µM (inactive) | > 100 µM (inactive) |  | > 100 µM (inactive) | > 100 µM (inactive) | > 100 µM (inactive) | > 100 µM (inactive) | > 100 µM (inactive) | > 100 µM (inactive) | > 100 µM (inactive) | > 100 µM (inactive) | > 100 µM (inactive) | > 100 µM (inactive) | > 100 µM (inactive) | > 100 µM (inactive) | > 100 µM (inactive) | > 100 µM (inactive) | 
COC(=O)CC1C(=O)OCc2c1cc1n(c2=O)Cc2c-1nc1ccccc1c2OC (stereo not drawn) | 59.8 µM (inactive) | > 100 µM (inactive) | 11 µM (inactive) | 20.7 µM (inactive) | > 100 µM (inactive) | 84.1 µM (inactive) |  | 4.16 µM (inactive) | 58.9 µM (inactive) | > 100 µM (inactive) | 54.5 µM (inactive) | > 100 µM (inactive) | > 100 µM (inactive) | 68.9 µM (inactive) | 16.3 µM (inactive) | 17.5 µM (inactive) | > 100 µM (inactive) | 13.4 µM (inactive)
c1ccc2c(c1)N=C(c1cccc3ccccc13)CC(c1cccc3ccccc13)S2 (stereo not drawn) | 9.12 µM (inactive) | 12.9 µM (inactive) | 9.14 µM (inactive) |  | 5.68 µM (inactive) | 2.49 µM (inactive) | 2.91 µM (inactive) | 3.8 µM (inactive) | 6.9 µM (inactive) | 2.96 µM (inactive) | 10.3 µM (inactive) | 2.56 µM (inactive) | 12.2 µM (inactive) | 2.63 µM (inactive) | 11.2 µM (inactive) | 3.48 µM (inactive) | 14.7 µM (inactive) | 3.19 µM (inactive)
CCC(C)OC(=O)C1C2CCC(O2)C1C(=O)O (stereo not drawn) | > 60.7 µM (inactive) | > 44.8 µM (inactive) | > 100 µM (inactive) | > 66.4 µM (inactive) | > 100 µM (inactive) | > 100 µM (inactive) | > 100 µM (inactive) | 24.7 µM (inactive) | > 100 µM (inactive) | > 70 µM (inactive) | > 100 µM (inactive) |  | > 100 µM (inactive) | > 44.3 µM (inactive) | > 100 µM (inactive) | > 41.5 µM (inactive) | > 70.5 µM (inactive) | > 40.6 µM (inactive)
O=C(CC1(O)C(=O)Nc2ccccc21)c1ccncc1 (stereo not drawn) | > 100 µM (inactive) | > 100 µM (inactive) |  | > 100 µM (inactive) | > 100 µM (inactive) | > 100 µM (inactive) |  | > 100 µM (inactive) | > 100 µM (inactive) |  | > 100 µM (inactive) | > 100 µM (inactive) |  | > 100 µM (inactive) | > 100 µM (inactive) | > 100 µM (inactive) |  | > 100 µM (inactive)
CCCCCC(=O)C(C)C1=Nc2nnc(CCCCCCCc3nnc4n3C(=O)C(C(C)C(=O)CCCCC)=N4)n2C1=O (stereo not drawn) | > 100 µM (inactive) | > 100 µM (inactive) | > 100 µM (inactive) |  | > 100 µM (inactive) | > 100 µM (inactive) | > 100 µM (inactive) | > 100 µM (inactive) | > 100 µM (inactive) | > 100 µM (inactive) | > 100 µM (inactive) | > 100 µM (inactive) | > 100 µM (inactive) | > 100 µM (inactive) | > 100 µM (inactive) | > 100 µM (inactive) | > 100 µM (inactive) | > 100 µM (inactive)
O=C1NC2C3CC(OCc4ccccc4)(OCc4ccccc4)C2OC3O1 (stereo not drawn) | > 50 µM (inactive) | > 50 µM (inactive) | > 50 µM (inactive) | > 50 µM (inactive) | > 50 µM (inactive) | > 50 µM (inactive) | > 50 µM (inactive) |  | > 50 µM (inactive) |  | > 50 µM (inactive) | > 50 µM (inactive) |  |  | > 50 µM (inactive) |  | 24.8 µM (inactive) | > 50 µM (inactive)
CCOC(=O)c1[nH]c2c(OC)n[n+]([O-])cc2c1[N+](=O)[O-] | 88.5 µM (inactive) | 25.1 µM (inactive) | 56.8 µM (inactive) |  | 54.8 µM (inactive) | 14.4 µM (inactive) | 15 µM (inactive) | 21.1 µM (inactive) | 19.6 µM (inactive) | 19.9 µM (inactive) | > 100 µM (inactive) | 15.7 µM (inactive) | 16.4 µM (inactive) | 17 µM (inactive) | 22 µM (inactive) | 15.8 µM (inactive) | 19 µM (inactive) | 19 µM (inactive)
Cc1c2c(cc[n+]1C)O[B-](c1ccccc1)(c1ccccc1)O2 | 84.5 µM (inactive) | 32.6 µM (inactive) | > 100 µM (inactive) |  | 90.6 µM (inactive) | 46 µM (inactive) | 59.8 µM (inactive) | 50 µM (inactive) | 87.3 µM (inactive) | 67.3 µM (inactive) | 94 µM (inactive) | 26.8 µM (inactive) | 55.2 µM (inactive) | 53.2 µM (inactive) | 33.7 µM (inactive) | 52.1 µM (inactive) | 55.5 µM (inactive) | 46.7 µM (inactive)
CN(C)CC(C)(C)/C(=N\Nc1ccccc1)c1ccccc1 | 92.5 µM (inactive) | 64.3 µM (inactive) | 45.2 µM (inactive) |  | 36.4 µM (inactive) | 28.1 µM (inactive) | 43.3 µM (inactive) | 53.3 µM (inactive) | 46.6 µM (inactive) | 99.8 µM (inactive) | 21.8 µM (inactive) | 29.1 µM (inactive) | 22.7 µM (inactive) | 37.4 µM (inactive) | 12.3 µM (inactive) | 37.3 µM (inactive) | 51.6 µM (inactive) | 68.4 µM (inactive)
O=C1[C@@H]2C(c3cccc([N+](=O)[O-])c3)=NO[C@@H]2C(=O)N1c1ccc(Cc2ccc(N3C(=O)[C@H]4C(c5cccc([N+](=O)[O-])c5)=NO[C@H]4C3=O)cc2)cc1 |  | > 100 µM (inactive) | > 100 µM (inactive) | > 100 µM (inactive) | > 100 µM (inactive) | > 100 µM (inactive) | > 10 µM (inactive) | > 100 µM (inactive) | > 100 µM (inactive) | > 10 µM (inactive) | > 10 µM (inactive) | > 100 µM (inactive) | > 100 µM (inactive) | > 10 µM (inactive) | > 100 µM (inactive) | > 100 µM (inactive) | > 100 µM (inactive) | > 100 µM (inactive)
CC1(C)C(=NNC(=O)C[N+](C)(C)C)C(C)(C)C1=NNC(=O)C[N+](C)(C)C | > 100 µM (inactive) | > 100 µM (inactive) | > 100 µM (inactive) | > 100 µM (inactive) | > 100 µM (inactive) | > 100 µM (inactive) | > 100 µM (inactive) | > 100 µM (inactive) | > 100 µM (inactive) | > 100 µM (inactive) | > 100 µM (inactive) |  | > 100 µM (inactive) | > 100 µM (inactive) | > 100 µM (inactive) | > 100 µM (inactive) | > 100 µM (inactive) | > 100 µM (inactive)
